49 compounds from US6727264B1 (Synaptic Pharmaceutical Corporation, priority 2001, dated 2004) can be followed below.

Read-outs that look alike come from different tables or passages of the source.

The target of the test is rat MCH-1 (Rattus norvegicus, UniProt P97639). Description: Radioligand binding assay at cloned rat MCH1 receptor ([3H] Compound A). To be noted: cloned rat MCH1 receptor, 0.08 nM [3H] Compound A, read-out: Ki (nM) rMCH1. The arrangement: host or cells: Peak rapid 293 (Peakr293) cells, transient calcium phosphate transfection, membranes.
Sequence of rat MCH-1 (P97639 whole entry): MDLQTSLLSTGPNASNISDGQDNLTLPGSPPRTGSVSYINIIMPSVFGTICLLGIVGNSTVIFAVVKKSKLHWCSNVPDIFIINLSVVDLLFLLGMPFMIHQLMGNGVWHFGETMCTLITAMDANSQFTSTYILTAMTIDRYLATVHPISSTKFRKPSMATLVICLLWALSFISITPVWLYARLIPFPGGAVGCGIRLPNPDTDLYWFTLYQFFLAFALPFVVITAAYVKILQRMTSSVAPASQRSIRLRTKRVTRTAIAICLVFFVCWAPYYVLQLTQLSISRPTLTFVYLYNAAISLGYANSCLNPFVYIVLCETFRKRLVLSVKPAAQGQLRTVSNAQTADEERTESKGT

In the case of `CC(C)C(=O)Nc1cccc(C2CCN(Cc3ccc4c(ccn4-c4cccc(Cl)c4)c3)CC2)c1` [Example 842], the Ki (commonly the equilibrium dissociation constant of an inhibitor or competing ligand from its target) (Peakr293 cell membranes) was found to be 15.8 nM.

Consider `CC(C)C(=O)Nc1cccc(C2CCN(CCCCNC(=O)c3ccc(Oc4cc(Cl)cc(Cl)c4)o3)CC2)c1` [Example 656], for which the Ki (Peakr293 cell membranes) amounted to 49.7 nM.

With `COc1ccc2[nH]c(-c3ccccc3F)c(CCCN3CCC(c4cccc(NC(=O)C(C)C)c4)CC3)c2c1` [Example 712], for the setting “Peakr293 cell membranes”, the inhibition constant Ki worked out at 8.6 nM.

With `CC(C)C(=O)Nc1cccc(C2CCN(CCCOc3cccc(F)c3)CC2)c1` [Example 346], the Ki (membranes from Peakr293 cells) is 107 nM.

Regarding `CC(C)C(=O)Nc1cccc(C2CCN(CCCc3c(-c4cccc(I)c4)[nH]c4ccccc34)CC2)c1` [Example 737], the inhibition constant (Ki) (Peakr293 cell membranes) worked out at 1 nM.

On to `Cc1ccc(Sc2ccc(CN3CCC(c4cccc(NC(=O)C(C)C)c4)CC3)cc2[N+](=O)[O-])cc1` [Example 262], for which, under “membranes from Peakr293 cells”, the inhibition constant (Ki) amounted to 64.1 nM.

Consider `CC(C)C(=O)Nc1cccc(C2CCN(CCCCCC(O)c3ccc(F)cc3)CC2)c1` (stereo not shown) [Example 817], for which the Ki (Peakr293 cell membranes) was determined as 34.9 nM.

Regarding `CC(C)C(=O)Nc1cccc(C2CCN(Cc3ccc(C(C)(C)C)cc3)CC2)c1` [Example 806], the inhibitory constant (Ki) (Peakr293 cell membranes) was found to be 14.1 nM.

As to `CC(C)C(=O)Nc1cccc(C2CCN(CCC(Oc3ccc(F)cc3)c3ccc(Cl)cc3)CC2)c1` (stereo not shown) [Example 183], where the note is “membranes from Peakr293 cells”, the Ki stood at 4 nM.

As to `Cc1cccc2c(CCCN3CCC(c4cccc(NC(=O)C(C)C)c4)CC3)c(-c3ccc([N+](=O)[O-])cc3)[nH]c12` [Example 779], the Ki (Peakr293 cell membranes) was found to be 7.6 nM.

Turning to `CC(C)C(=O)Nc1cccc(C2CCN(CCCc3c(-c4ccccc4I)n(-c4ccccc4)c4ccccc34)CC2)c1` [Example 792], the inhibitory constant (Ki) (Peakr293 cell membranes) is 122 nM.

For `CC(C)C(=O)Nc1cccc(C2CCN(CCCCNC(=O)c3cccnc3Oc3ccc(Cl)cc3)CC2)c1` [Example 678], the inhibition constant Ki (Peakr293 cell membranes) amounted to 14.7 nM.

Turning to `Cc1ccc2[nH]c(-c3ccc(Br)cc3)c(CCCN3CCC(c4cccc(NC(=O)C(C)C)c4)CC3)c2c1` [Example 764], the Ki (Peakr293 cell membranes) is 14.6 nM.

With `CCn1c2ccccc2c2cc(CN3CCC(c4ccccc4NC(=O)C(C)C)CC3)ccc21` [Example 274], where the note is “membranes from Peakr293 cells”, the Ki came out at 844 nM.

On to `CC(=O)c1ccccc1OC(CCCCCN1CCC(c2cccc(NC(=O)C(C)C)c2)CC1)c1ccccc1F` (stereo not shown) [Example 910], for which the Ki (Peakr293 cell membranes) was determined as 10.1 nM.

`CC(C)C(=O)Nc1cccc(C2CCN(Cc3c[nH]c4cccc(Br)c34)CC2)c1` [Example 431]: for the setting “Peakr293 cell membranes”, the inhibitory constant (Ki) turned out to be 968 nM.

For the compound `COc1ccc2[nH]c(-c3cccc([N+](=O)[O-])c3)c(CCCN3CCC(c4cccc(NC(=O)C(C)C)c4)CC3)c2c1` [Example 770], for the setting “Peakr293 cell membranes”, the inhibition constant Ki was 12.7 nM.

As to `CC(C)C(=O)Nc1cccc(C2CCN(CCCc3cc[nH]c3)CC2)c1` [Example 942], the Ki (Peakr293 cell membranes) was 188 nM.

Take `CC(C)C(=O)Nc1cccc(C2CCN(Cc3cccc(Oc4cccc(C(F)(F)F)c4)c3)CC2)c1` [Example 209]: the Ki (membranes from Peakr293 cells) was 64.8 nM.

`COc1ccc(C(CCN2CCC(c3cccc(NC(=O)C(C)C)c3)CC2)Oc2ccc(C(F)(F)F)cc2)cc1` (stereo not shown) [Example 182]: for the setting “membranes from Peakr293 cells”, the Ki is 101 nM.

Turning to `CC(C)C(=O)Nc1cccc(C2CCN(CCCCCN3C(=O)OCC3c3ccc(F)c(F)c3)CC2)c1` (stereo not shown) [Example 105], the inhibition constant Ki (membranes from Peakr293 cells) came out at 4.6 nM.

Turning to `CC(=O)c1cccc(OC(CCCCN2CCC(c3cccc(NC(=O)C(C)C)c3)CC2)c2ccccc2)c1` (stereo not shown) [Example 927], the inhibitory constant (Ki) (Peakr293 cell membranes) was 60.7 nM.

Take `Cc1cccc2c(CCCN3CCC(c4cccc(NC(=O)C(C)C)c4)CC3)c(-c3cccc(Br)c3)[nH]c12` [Example 762]: where the note is “Peakr293 cell membranes”, the inhibition constant Ki amounted to 6.3 nM.

For `CC(C)C(=O)Nc1cccc(C2CCN(Cc3cccc4c3ccn4-c3ccncc3)CC2)c1` [Example 869], the inhibition constant Ki (Peakr293 cell membranes) was determined as 431 nM.

With `COc1ccc(CCCN2CCC(c3cccc(NC(=O)C(C)C)c3)CC2)cc1OC` [Example 803], the Ki (Peakr293 cell membranes) is 299 nM.

For the compound `CC(C)C(=O)Nc1cccc(C2CCN(Cc3ccc4cc[nH]c4c3)CC2)c1` [Example 868], for the setting “Peakr293 cell membranes”, the Ki turned out to be 403 nM.

Regarding `Cc1onc(-c2c(F)cccc2Cl)c1C(=O)N[C@@H](CCN1CCC(c2cccc(NC(=O)C(C)C)c2)CC1)c1ccccc1` [Example 313], the Ki (membranes from Peakr293 cells) came to 249 nM.

`CC(C)C(=O)Nc1cccc(C2CCN(CCNC(=O)c3coc(Oc4cc(Cl)cc(Cl)c4)c3)CC2)c1` [Example 648]: for the setting “Peakr293 cell membranes”, the Ki came out at 13.4 nM.

Turning to `Cc1ccc(Oc2cccc(CN3CCC(c4cccc(NC(=O)C(C)C)c4)CC3)c2)cc1` [Example 208], for the setting “membranes from Peakr293 cells”, the Ki was 30.8 nM.

Regarding `CC(C)C(=O)Nc1cccc(C2CCN(CCCCC(Oc3cc(C(F)(F)F)ccc3F)c3ccc(C(F)(F)F)cc3)CC2)c1` (stereo not shown) [Example 929], the Ki (Peakr293 cell membranes) was determined as 29.9 nM.

Regarding `CC(C)C(=O)Nc1cccc(C2CCN(CCCCC(O)c3ccccc3)CC2)c1` (stereo not shown) [Example 280], the Ki (membranes from Peakr293 cells) was 27.6 nM.

Take `CC(C)C(=O)Nc1cccc(C2CCN(CCCCSc3ccccc3)CC2)c1` [Example 585]: the Ki (Peakr293 cell membranes) came out at 37.2 nM.

On to `CCC(=O)Nc1cccc(C2CCN(CCCC(=O)c3ccc(C(C)C)cc3)CC2)c1` [Example 540], for which the inhibition constant (Ki) (Peakr293 cell membranes) is 172 nM.

Take `O=C(CCCCN1CCC(c2cccc(NC(=O)C3CC3)c2)CC1)c1ccc(C(F)(F)F)cc1` [Example 565]: the inhibitory constant (Ki) (Peakr293 cell membranes) stood at 49.2 nM.

Consider `CCOC(=O)c1[nH]c2ccccc2c1CN1CCC(c2cccc(NC(=O)C(C)C)c2)CC1` [Example 425, ETHYL 3-({4-[3-(ISOBUTYRYLAMINO)PHENYL]-1-PIPERIDINYL}METHYL)-1H-INDOLE-2-CARBOXYLATE], for which the inhibitory constant (Ki) (Peakr293 cell membranes) is 599 nM.

Take `CC(=O)c1cccc(OCCCCN2CCC(c3cccc(NC(=O)C(C)C)c3)CC2)c1` [Example 375]: under “membranes from Peakr293 cells”, the Ki was found to be 186 nM.

With `Cc1cccc2c(CCCN3CCC(c4cccc(NC(=O)C(C)C)c4)CC3)c(-c3ccccc3Br)[nH]c12` [Example 783], the inhibition constant (Ki) (Peakr293 cell membranes) worked out at 18 nM.

For `CC(C)C(=O)Nc1cccc(C2CCN(CCCCC(=O)c3cccc(F)c3)CC2)c1` [Example 669], the inhibition constant Ki (Peakr293 cell membranes) was 42.2 nM.

As for `CC(C)C(=O)Nc1cccc(C2CCN(CCCCCCNC(=O)c3cnn(-c4ccc([N+](=O)[O-])cc4)c3C(F)(F)F)CC2)c1` [Example 624], for the setting “Peakr293 cell membranes”, the Ki is 47.8 nM.

Take `CC(C)C(=O)Nc1cccc(C2CCN(Cc3cccc4c3ccn4-c3ccccc3Cl)CC2)c1` [Example 877]: the inhibitory constant (Ki) (Peakr293 cell membranes) worked out at 245 nM.

For the compound `CC(C)C(=O)Nc1cccc(C2CCN(C[C@H](C)COc3ccc(Cl)cc3)CC2)c1` [Example 363], the Ki (membranes from Peakr293 cells) is 31.6 nM.

For the compound `COc1ccc(OC(CCCCCN2CCC(c3cccc(NC(=O)C(C)C)c3)CC2)c2ccccc2F)cc1OC` (stereo not shown) [Example 894], the Ki (Peakr293 cell membranes) was found to be 41.7 nM.

With `CC(C)C(=O)Nc1cccc(C2CCN(CCCc3c(-c4ccccc4Cl)[nH]c4ccccc34)CC2)c1` [Example 730], the inhibition constant (Ki) (Peakr293 cell membranes) worked out at 0.9 nM.

`CC(C)C(=O)Nc1cccc(C2CCN(CCCCc3ccc([N+](=O)[O-])cc3)CC2)c1` [Example 800]: under “Peakr293 cell membranes”, the Ki turned out to be 9.9 nM.

For the compound `CC(C)C(=O)Nc1cccc(C2CCN(CCCCC(=O)c3ccccc3Cl)CC2)c1` [Example 673], the Ki (Peakr293 cell membranes) worked out at 32.5 nM.

Consider `CCOc1ccc(NC(=O)NCCCN2CCC(c3cccc(NC(=O)C(C)C)c3)CC2)cc1` [Example 617], for which the Ki (Peakr293 cell membranes) was 609 nM.

`CC(C)C(=O)Nc1cccc(C2CCN(Cc3cn(-c4ccccc4)c4ccccc34)CC2)c1` [Example 93]: the Ki (membranes from Peakr293 cells) amounted to 4.2 nM.

`COc1ccc2[nH]c(-c3ccccc3)c(CN3CCC(c4cccc(NC(=O)C(C)C)c4)CC3)c2c1` [Example 444]: where the note is “Peakr293 cell membranes”, the Ki was found to be 545 nM.

In the case of `CC(C)C(=O)Nc1cccc(C2CCN(CCCC(=O)c3ccc(C(C)(C)C)cc3)CC2)c1` [Example 946], under “Peakr293 cell membranes”, the Ki was determined as 337 nM.
